Laboratory results published in patent US20260034094A1, “COMPOSITIONS AND METHODS FOR INDUCING FERROPTOSIS” (Kojin Therapeutics, Inc., priority 2022, published 2026).
“And” between values parts separate entries of the source, which are not always exact repeats. Equal entries are not always repeated. Where two headings read alike, the source gives them in different places.

Assays:
human recombinant GCL = human recombinant GCL (Homo sapiens (Human), UniProt P48506); experiment: GCL enzyme profiling assay (ADP-Glo luminescence); format: biochemical
human recombinant GCL, sequence (P48506 whole entry): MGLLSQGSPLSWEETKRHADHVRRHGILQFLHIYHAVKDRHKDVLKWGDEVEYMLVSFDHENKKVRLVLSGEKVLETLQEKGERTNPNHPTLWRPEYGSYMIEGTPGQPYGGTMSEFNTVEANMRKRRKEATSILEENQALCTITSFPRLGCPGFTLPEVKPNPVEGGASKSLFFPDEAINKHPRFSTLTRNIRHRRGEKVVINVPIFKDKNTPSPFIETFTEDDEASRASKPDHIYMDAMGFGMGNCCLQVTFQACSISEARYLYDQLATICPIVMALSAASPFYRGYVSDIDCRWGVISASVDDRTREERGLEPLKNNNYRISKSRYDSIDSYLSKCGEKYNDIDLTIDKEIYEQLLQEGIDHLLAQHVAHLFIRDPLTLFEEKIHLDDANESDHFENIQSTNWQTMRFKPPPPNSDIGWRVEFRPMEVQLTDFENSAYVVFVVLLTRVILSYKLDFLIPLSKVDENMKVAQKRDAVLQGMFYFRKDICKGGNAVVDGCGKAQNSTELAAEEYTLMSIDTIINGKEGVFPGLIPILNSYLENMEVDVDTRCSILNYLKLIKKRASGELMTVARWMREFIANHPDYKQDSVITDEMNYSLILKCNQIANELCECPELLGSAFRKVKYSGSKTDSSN
Procedure, shortened: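 IC50 fitted by four-parameter logistic to luminescent ADP formation (ADP-Glo). Reaction at room temperature in HEPES pH 7.5 with 30 mM MgCl2, 0.2% F-127, 1% DMSO; 5 nM GCL and 0.6 mM ATP preincubated 1 h before adding 1 mM glutamate plus 1.2 mM α-aminobutyrate for 2 h.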

RKN cells = experiment: RKN cell profiling assay (cell viability, CellTiter-Glo); format: cell-based; conditions: read-out: Cell Killing EC50
Procedure, shortened: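 Viability read by CellTiter-Glo luminescence after 96 h compound exposure (0.5% DMSO final) of cells plated at 1,000/well in 10% FBS F-12 and allowed 24 h attachment. Four-parameter fits gave EC50; rescue arms used ferrostatin-1, 1.5 μM, present from seeding.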

[1] = human recombinant GCL, ADP-Glo, read-out: GCL IC50
[2] = human recombinant GCL 5 nM, 1 h preincubation with ATP, read-out: GCL IC50

SMILES	IC50 (human recombinant GCL; [1]) [mM]	IC50 (human recombinant GCL; [2])	IC50 (human recombinant GCL; human recombinant GCL 5 nM, 1 h preincubation with ATP, read-out: GCL IC50 (mM), individual values in parentheses)	EC50 (RKN cells; cell viability) [mM]	EC50 (RKN cells; 96 h, 96 h exposure) [mM]
CC(O)(CCS(=N)(=O)CC[C@H](N)C(=O)O)C1CCC1 (stereo partly drawn) [Compound 497, (2S)-2-amino-4-(3-cyclobutyl-3-hydroxybutylsulfonimidoyl)butanoic acid]	0.02 to 2	–	–	≥ 1	–
N=S(=O)(CC[C@H](N)C(=O)O)CCC(O)(c1ccsn1)C(F)(F)F (some centres unmarked) [Compound 370]	≤ 0.02	–	–	< 1	–
COc1cc(OC(F)(F)F)ccc1-c1ccc(C(O)(CCS(=N)(=O)CC[C@H](N)C(=O)O)C(F)(F)F)cc1 (some centres unmarked) [Compound 440]	≤ 0.02	–	–	< 1	–
N=S(=O)(CC[C@H](N)C(=O)O)CCC(O)(c1ccc(Oc2ccc3ccc(=O)oc3c2)cc1)C(F)(F)F (some centres unmarked) [compound 501]	≤ 0.02	–	–	≥ 1	–
N=S(=O)(CCC(n1ncc(-c2cccnc2)n1)C(F)(F)F)CC[C@H](N)C(=O)O (some centres unmarked) [Compound 408]	≤ 0.02	–	–	≥ 1	–
CCCCS(=N)(=O)CC[C@H](N)C(=O)OC(C)(C)C (some centres unmarked) [Compound 483]	0.02 to 2	–	–	≥ 1	–
N=S(=O)(CCCC(F)(F)F)CC[C@H](N)C(=O)NC1CC1 (some centres unmarked) [Compound 130]	–	> 2 mM and 0.02 to 2 mM	> 10 mM and 1.73 mM	–	< 1
CCCCS(=N)(=O)CC[C@H](N)C(=O)NCC#N (some centres unmarked) [Compound 106]	–	> 2 mM	–	–	≥ 1
CC(C)(C)CCS1(=O)=NC(=O)[C@@H](N)CC1 (stereo partly drawn) [Compound 201, (1S,4R)-4-amino-1-(3,3-dimethylbutyl)-5,6-dihydro-1,2-thiazin-3 (4H)-one 1-oxide]	–	0.02 to 2 mM	–	–	< 1
CC(O)(CCS(=N)(=O)CC[C@H](N)C(=O)O)C(F)(F)F (stereo partly drawn) [Compound 174, (2S)-2-amino-4-(4,4,4-trifluoro-3-hydroxy-3-methylbutylsulfonimidoyl)butanoic acid]	–	0.02 to 2 mM	–	–	< 1
CCCCS(=N)(=O)CC[C@H](N)C(=O)NS(C)(=O)=O (stereo partly drawn) [Compound 104, (2S)-2-amino-4-(butylsulfonimidoyl)-N-(methylsulfonyl)butanamide]	–	0.02 to 2 mM	–	–	≥ 1
C[C@](O)(CCS(=N)(=O)CC[C@H](N)C(=O)O)C(F)(F)F (single isomer, unassigned) [Compound 324]	≤ 0.02	–	–	< 1	–
N=S(=O)(CCC(C(=O)O)C(F)(F)F)CC[C@H](N)C(=O)O (some centres unmarked) [Compound 306]	≤ 0.02	–	–	< 1	–
N=S(=O)(CC[C@H](N)C(=O)O)CCC(O)(c1ccc(-c2ccc(C(F)(F)F)cc2C(F)(F)F)cc1)C(F)(F)F (some centres unmarked) [Compound 439]	≤ 0.02	–	–	< 1	–
N=S(=O)(CC[C@H](N)C(=O)O)CCC(O)(c1ccc(C2CC2)cn1)C(F)(F)F (some centres unmarked) [Compound 475]	0.02 to 2	–	–	≥ 1	–
N=S(=O)(CCC(C(N)=O)C(F)(F)F)CC[C@H](N)C(=O)O (some centres unmarked) [Compound 308]	0.02 to 2	–	–	< 1	–
CC(C)(C)CCS(=N)(=O)CC[C@H](N)C(=O)NCC(F)(F)F (some centres unmarked) [Compound 114]	–	> 2 mM	–	–	< 1
CC(C)OCCS(=N)(=O)CC[C@H](N)C(=O)O (some centres unmarked) [Compound 166]	–	0.02 to 2 mM	–	–	≥ 1
N=S(=O)(CCC(O)C(F)(F)F)CC[C@H](N)C(=O)O (stereo partly drawn) [Compound 154, (2S)-2-amino-4-(4,4,4-trifluoro-3-hydroxybutylsulfonimidoyl)butanoic acid]	–	≤ 0.02 mM	–	–	< 1
CC(C)(C)CCS(=N)(=O)CC[C@H](N)C(=O)O (some centres unmarked) [Compound 187]	–	0.02 to 2 mM	–	–	< 1
N=S(=O)(CCC(c1ccc(-c2ccc(Cl)c(C(F)(F)F)c2)cc1)C(F)(F)F)CC[C@H](N)C(=O)O (some centres unmarked) [Compound 237]	≤ 0.02	–	–	< 1	–
CC(C)(C)CCS(=N)(=O)CC[C@H](N)C(=O)NC1CC1 (some centres unmarked) [Compound 113]	–	0.02 to 2 mM	–	–	< 1
N=S(=O)(CC[C@H](N)C(=O)O)CCC(O)(c1ccc(C2CCCC2)cn1)C(F)(F)F (stereo partly drawn) [Compound 461, (2S)-2-amino-4-(3-(5-cyclopentylpyridin-2-yl)-4,4,4-trifluoro-3-hydroxybutylsulfonimidoyl)butanoic acid]	≤ 0.02	–	–	< 1	–
N=S(=O)(CC[C@H](N)C(=O)O)CCC(O)(C1CC1)C(F)(F)F (stereo partly drawn) [Compound 349, (2S)-2-amino-4-(3-cyclopropyl-4,4,4-trifluoro-3-hydroxybutylsulfonimidoyl)butanoic acid]	0.02 to 2	–	–	< 1	–
CCOC(=O)C1(CCS(=N)(=O)CC[C@H](N)C(=O)O)CCC1 (some centres unmarked) [Compound 189]	–	0.02 to 2 mM	–	–	< 1
CCCCS(=N)(=O)CC[C@H](N)C(=O)NS(=O)(=O)C(F)(F)F (some centres unmarked) [Compound 108]	–	> 2 mM	–	–	≥ 1
COC(C)(C)CCCS(=N)(=O)CC[C@H](N)C(=O)O (some centres unmarked) [Compound 295]	0.02 to 2	–	–	≥ 1	–
N=S(=O)(CCOCC(F)(F)F)CC[C@H](N)C(=O)O (some centres unmarked) [Compound 175]	–	0.02 to 2 mM	–	–	≥ 1
N=S(=O)(CC[C@H](N)C(=O)O)CC[C@H](O)C(F)(F)F (single isomer, unassigned) [Compound 326]	≤ 0.02	–	–	< 1	–
CC(C)(C)CCS(=N)(=O)CC[C@H](N)C(=O)NS(C)(=O)=O (some centres unmarked) [Compound 111]	–	0.02 to 2 mM	–	–	≥ 1

Second part, led by results:

IC50 (human recombinant GCL; [1]) [mM]	IC50 (human recombinant GCL; [2])	IC50 (human recombinant GCL; human recombinant GCL 5 nM, 1 h preincubation with ATP, read-out: GCL IC50 (mM), individual values in parentheses)	SMILES	EC50 (RKN cells; cell viability) [mM]	EC50 (RKN cells; 96 h, 96 h exposure) [mM]
–	≤ 0.02 mM	–	N=S(=O)(CCc1ccc(F)c(F)c1)CC[C@H](N)C(=O)O (some centres unmarked) [Compound 5]	–	≥ 1
–	≤ 0.02 mM	–	N=S(=O)(CCC(c1ccc(-c2ccccc2Cl)cc1)C(F)(F)F)CC[C@H](N)C(=O)O (stereo partly drawn) [Compound 212, (2S)-2-amino-4-(3-(2′-chloro-[1,1′-biphenyl]-4-yl)-4,4,4-trifluorobutylsulfonimidoyl)butanoic acid]	–	< 1
≤ 0.02	–	–	COc1ccc(Cl)cc1-c1ccc(C(CCS(=N)(=O)CC[C@H](N)C(=O)O)C(F)(F)F)cc1 (some centres unmarked) [Compound 236]	< 1	–
≤ 0.02	–	–	N=[S@@](=O)(CC[C@H](N)C(=O)O)CC[C@@](O)(c1ccccc1)C(F)(F)F [Compound 347, (S)-2-amino-4-((R,3R)-4,4,4-trifluoro-3-hydroxy-3-phenylbutylsulfonimidoyl)butanoic acid]	< 1	–
≤ 0.02	–	–	N=S(=O)(CCC(c1ccccc1Cl)C(F)(F)F)CC[C@H](N)C(=O)O (some centres unmarked) [Compound 309]	< 1	–
0.02 to 2	–	–	CC(=O)Nc1ccc(C(O)(CCS(=N)(=O)CC[C@H](N)C(=O)O)C(F)(F)F)cc1 (some centres unmarked) [compound 506]	< 1	–
≤ 0.02	–	–	N=S(=O)(CCC(c1ccc(-c2cc(Cl)cc(Cl)c2)cc1)C(F)(F)F)CC[C@H](N)C(=O)O (some centres unmarked) [Compound 234]	≥ 1	–
≤ 0.02	–	–	N=S(=O)(CCC(c1ccc(S(=O)(=O)Nc2ccccc2)cc1)C(F)(F)F)CC[C@H](N)C(=O)O (some centres unmarked) [compound 499]	≥ 1	–
–	≤ 0.02 mM	–	N=S(=O)(CC[C@H](N)C(=O)O)CCC(O)(c1ccccc1Cl)C(F)(F)F (stereo partly drawn) [Compound 209, (2S)-2-amino-4-(3-(2-chlorophenyl)-4,4,4-trifluoro-3-hydroxybutylsulfonimidoyl)butanoic acid]	–	< 1
≤ 0.02	–	–	N=S(=O)(CCC(n1ncc(-c2ccccn2)n1)C(F)(F)F)CC[C@H](N)C(=O)O (some centres unmarked) [Compound 407]	≥ 1	–
≤ 0.02	–	–	N=S(=O)(CCC(c1ccc(-c2cc(F)cc(F)c2)cc1)C(F)(F)F)CC[C@H](N)C(=O)O (some centres unmarked) [Compound 222]	< 1	–
–	≤ 0.02 mM	–	N=S(=O)(CCc1ccc(C(F)(F)F)cc1C(F)(F)F)CC[C@H](N)C(=O)O (some centres unmarked) [Compound 36]	–	< 1
–	0.02 to 2 mM	–	N=S(=O)(CCc1cccc(Cl)c1Cl)CC[C@H](N)C(=O)O (some centres unmarked) [Compound 25]	–	≥ 1
–	0.02 to 2 mM	–	Cc1cccc(Cl)c1CCS(=N)(=O)CC[C@H](N)C(=O)O (some centres unmarked) [Compound 42]	–	≥ 1
0.02 to 2	–	–	N=S(=O)(CC[C@H](N)C(=O)O)CCC1(c2ccc3[nH]cnc3c2)CCC1 (some centres unmarked) [Compound 396]	≥ 1	–
0.02 to 2	–	–	N=S(=O)(CCC(c1ccc(-c2ccccc2Cl)cc1)C(F)(F)F)CC[C@H](N)C(=O)O (single isomer, unassigned) [Compound 218]	≥ 1	–
–	0.02 to 2 mM	–	N=S(=O)(CCc1cccc2c1OC(F)(F)O2)CC[C@H](N)C(=O)O (some centres unmarked) [Compound 18]	–	≥ 1
–	≤ 0.02 mM	–	N=S(=O)(CCc1cccc2ccccc12)CC[C@H](N)C(=O)O (some centres unmarked) [Compound 31]	–	≥ 1
–	≤ 0.02 mM	–	N#Cc1ccccc1CCS(=N)(=O)CC[C@H](N)C(=O)O (some centres unmarked) [Compound 30]	–	≥ 1
–	> 2 mM	–	N=S(=O)(CC[C@H](N)C(=O)O)Cc1ccccc1 (some centres unmarked) [Compound 140]	–	≥ 1
–	≤ 0.02 mM	–	N=S(=O)(CCc1ccc(Cl)c(Cl)c1)CC[C@H](N)C(=O)O (some centres unmarked) [Compound 13]	–	≥ 1
–	> 2 mM	–	N=S(=O)(CCc1nccs1)CC[C@H](N)C(=O)O (some centres unmarked) [Compound 10]	–	≥ 1
≤ 0.02	–	–	CC(CCS(=N)(=O)CC[C@H](N)C(=O)O)(c1ccccc1)C(F)(F)F (some centres unmarked) [Compound 293]	≥ 1	–
0.02 to 2	–	–	N=S(=O)(CC[C@H](N)C(=O)O)CCC(O)(c1cccnc1)C(F)(F)F (some centres unmarked) [Compound 361]	≥ 1	–
–	0.02 to 2 mM	–	N=S(=O)(CC[C@H](N)C(=O)O)CCC1(C(=O)Nc2ccccc2)CCC1 (some centres unmarked) [Compound 195]	–	≥ 1
0.02 to 2	–	–	N=[S@@](=O)(CC[C@H](N)C(=O)O)CCC1(c2ccccn2)CCC1 [compound 388]	< 1	–
